The target of experiment [1] is Cerebral Binding Sites of the Benzodiazepines.
Description: Affinity for the Cerebral Binding Sites of the Benzodiazepines
Experiment [2] deals with ventricular arrhythmias caused by the aconitine. The experiment is described as follows: aconitine test on the rat (antiarrhythmic activity). As to conditions: iv, read-out: ED50, dose which increases by 50% the time of perfusion of the aconitine versus control animals. The format is in vivo. As to the method:
The principle of the method rests on the time of induction of the ventricular arrhythmias caused by the aconitine which is slowly perfused in rats. An antiarrhythmic substance retards the appearance of the arrhythmias and the delay is proportional to the activity of the molecule.
Groups of 5 male rats are used. An individual annesthesia is realized (10% urethane: 1 g/kg/ip) in order to permit a catheterization of the vein of the penis. The electrocardiogram is recorded. At time T=O the substance studied is injected in the form of an aqueous solution, at the rate of 2.5 ml of solution per kg in 30 seconds. At time T=90 seconds, say 1 minute after the end of the injection, the aconitine is perfused at the rate of 20 μg per minute, until the appearance of extra […] systoles. The time of perfusion of the aconitine is noted.
The results are expressed by ED50, which is the dose of product in mg/kg which increases by 50% the time of perfusion of the aconitine in comparison with the perfusion time of aconitine for the control animals.

Experiment [3] concerns the target Cerebral Binding Sites of the Benzodiazepines. The experiment is described as follows: displacement of tritiated Diazepam (3H Diazepam) from cerebral benzodiazepine binding sites (method of Mohler and Coll.). As to conditions: read-out: KD, constant of affinity of 3H Diazepam; constant used in the Ki formula.

As to `COc1ccc2nccc(C(=O)CCC3CCCNC3)c2c1` (stereo not drawn) [Example 1, 1-[4-(6-methoxy)quinolyl]-3-(3-piperidyl)-1-propanone], in experiment [1], the Ki stood at 2000 nM.

For `O=C(CC1CCCNC1)c1cc(-c2ccccc2)nc2ccccc12` (stereo not drawn) [Example 3, 1-[4-(2-phenyl)quinolyl]-2-(3-piperidyl)-ethanone], the ED50 in experiment [2] is 2.8 mg/kg.

For the compound `O=C(CCC1CCCNC1)c1cc(-c2ccccc2)nc2ccccc12` (stereo not drawn) [Example 4, 1-[4-(2-phenyl)quinolyl]-3-(3-piperidyl)-1-propanone], the Ki in experiment [1] is 800 nM.

In the case of `COc1ccc2nccc(CCCC3CCCNC3)c2c1` (stereo not drawn) [Example 11, 6-methoxy-4-[3-(3-piperidyl)-propyl]-quinoline], the ED50 in experiment [2] turned out to be 7.8 mg/kg. The same compound displayed a Ki in experiment [1] of 5500 nM.

With `c1ccc(-c2cc(CCC3CCCNC3)c3ccccc3n2)cc1` (stereo not drawn) [Example 13, 2-phenyl-4-[2-(3-piperidyl)-ethyl]-quinoline], in experiment [1], the affinity corresponds to a Ki of 100 nM.

As for `c1ccc(-c2cc(CCCC3CCCNC3)c3ccccc3n2)cc1` (stereo not drawn) [Example 14, 2-phenyl-4-[3-(3-piperidyl)-propyl]-quinoline], the ED50 in experiment [2] came to 2.2 mg/kg. This compound displayed a Ki in experiment [1] of 1000 nM.

With `Clc1ccc(-c2cc(CCC3CCCNC3)c3ccccc3n2)cc1` (stereo not drawn) [Example 20, 2-(4-chloro-phenyl)-4-[2-(3-piperidyl)-ethyl]-quinoline], the Ki in experiment [1] is 1600 nM.

In experiment [1], `c1ccc(-c2cc(CCC3CCCCN3)c3ccccc3n2)cc1` (stereo not drawn) [Example 22, 2-phenyl-4-[2-(2-piperidyl)-ethyl]-quinoline] registered a Ki of 600 nM.

The compound `CN1CCCC(CCc2cc(-c3ccccc3)nc3ccccc23)C1` (stereo not drawn) [Example 23, 4-{2-[3-(1-methyl)piperidyl]-ethyl}-2-phenyl-quinoline] returned a Ki in experiment [1] of 900 nM.

Regarding `CN1CCCC(CCCc2cc(-c3ccccc3)nc3ccccc23)C1` (stereo not drawn) [Example 24, 4-{3-[3-(1-methyl)piperidyl]-propyl}-2-phenyl-quinoline], the Ki in experiment [1] was found to be 3000 nM.

Turning to `c1ccc(-c2cc(CCC3CCNC3)c3ccccc3n2)cc1` (stereo not drawn) [Example 29, 2-phenyl-4-[2-(3-pyrrolidinyl)-ethyl]-quinoline], the Ki in experiment [1] is 700 nM.

In the case of `c1ccc(-c2cc(CCCC3CCCCN3)c3ccccc3n2)cc1` (stereo not drawn) [Example 30, 4-[3-(2-piperidyl)-propyl]-2-phenyl-quinoline], in experiment [1], the Ki was 2700 nM.

As to `CN1C(=O)CN=C(c2ccccc2)c2cc(Cl)ccc21` [^3 H Diazepam], the Kd in experiment [3] amounted to 2740 nM.

Source of the values: patent US4402961A, “Derivatives of 1-(2-,3- or 4-quinolyl)-2- or -3-(2- or 3-piperidyl or -pyrrolidinyl) ethanone or propanone, and their utilization as antiarrhythmics, anticonvulsivants and for the treatment of anxiety” (Pharmindustrie, priority 1980, dated 1983).
